Measured values reported in US20250288683A1, “TETRAHYDROISOQUINOLINE HETEROBIFUNCTIONAL BCL-XL DEGRADERS” (Treeline Biosciences, Inc., priority 2022, published 2025).

Biological target: T1, Human BCL-XL protein (N-terminal HiBiT tagged BCL-XL in HT1080 cells) (Homo sapiens, UniProt Q07817)
T1 construct: expressed in transfected cells; host or cells: HT-1080 (ATCC CCL-121), stably transduced with lentivirus pLV-UBC-N-HiBiT-BCL-XL-PGK-puro and selected with puromycin
Assay: HiBiT based degradation assay
Format: cell-based
Settings: HT1080 cells expressing N-terminal HiBiT tagged BCL-XL, 24 h, normalized with DMSO control
Excerpt: HiBiT Based Degradation Assay
Human BCL-XL protein coding open reading frame fused with N-terminal HiBiT coding sequence was synthesized from Integrated DNA Technologies (IDT). Next, N-HiBiT-BCL-XL sequence was cloned into pLV-UBC-PGK-Puro, a lentivirus plasmid purchased from Vectorbuilder, to generate pLV-UBC-N-HiBiT-BCL-XL-PGK-puro. Lentiviral particles were generated from Lenti-X™ 293T cells (Clontech) by co-transfection of pLV-UBC-N-HiBiT-BCL-XL-PGK-puro plasmids and lentiviral packaging plasmid mix (Cellecta). HT-1080 [HT1080](ATCC CCL-121) cells were infected with the lentivirus, and HT1080 cells stably integrated with the lentiviral vectors were established by incubation with 1 μg/mL puromycin (Thermofisher).
HT1080 cells expressing N-terminal HiBiT tagged BCL-XL were dispensed into a 384-well plate pre-spotted with compounds at varying concentrations. Three thousand cells were seeded into each well in 40 μL of RPMI 1640 media. […] After incubation, luminescence was read on a PHERAstar FSX Plate Reader (BMG). BCL-XL degradation at each indicated concentration was normalized with the DMSO control. The BCL-XL degradation curves were plotted using a four-parameter logistic model. For compounds displaying hook effects, the curve fitting was performed using the bottom point of the hook curves (i.e., the point of Ymin) as the bottom plateau to calculate EC50.

T1 sequence (Q07817 whole entry): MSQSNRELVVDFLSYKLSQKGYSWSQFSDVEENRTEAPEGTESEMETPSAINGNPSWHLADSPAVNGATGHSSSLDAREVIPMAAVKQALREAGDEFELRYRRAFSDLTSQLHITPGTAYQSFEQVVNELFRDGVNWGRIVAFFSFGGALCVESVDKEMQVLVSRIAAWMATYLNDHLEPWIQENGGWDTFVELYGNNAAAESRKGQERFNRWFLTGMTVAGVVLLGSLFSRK

SMILES	Ymin (24 h)
Cc1ncsc1-c1ccc([C@H](C)NC(=O)[C@@H]2C[C@@H](O)CN2C(=O)[C@@H](NC(=O)C[C@H]2CC[C@H](Oc3cccc(-c4ccc(N5CCc6cccc(C(=O)Nc7nc8ccccc8s7)c6C5)nc4C(=O)O)c3C)CC2)C(C)(C)C)cc1 [Compound 116a, 6-(8-(benzo[d]thiazol-2-ylcarbamoyl)-3,4-dihydroisoquinolin-2 (1H)-yl)-3-(3-(((1S,4r)-4-(2-(((S)-1-((2S,4R)-4-hydroxy-2-(((S)-1-(4-(4-methylthiazol-5-yl)phenyl)ethyl)carbamoyl)pyrrolidin-1-yl)-3,3-dimethyl-1-oxobutan-2-yl)amino)-2-oxoethyl)cyclohexyl)oxy)-2-methylphenyl)picolinic acid]	A (Ymin < 50%)
Cc1ncsc1-c1ccc([C@H](C)NC(=O)[C@@H]2C[C@@H](O)CN2C(=O)[C@@H](NC(=O)C[C@H]2CC[C@@H](Oc3cccc(-c4ccc(N5CCc6cccc(C(=O)Nc7nc8ccccc8s7)c6C5)nc4C(=O)O)c3C)CC2)C(C)(C)C)cc1 [Compound 116b, 6-(8-(benzo[d]thiazol-2-ylcarbamoyl)-3,4-dihydroisoquinolin-2 (1H)-yl)-3-(3-(((1R,4s)-4-(2-(((S)-1-((2S,4R)-4-hydroxy-2-(((S)-1-(4-(4-methylthiazol-5-yl)phenyl)ethyl)carbamoyl)pyrrolidin-1-yl)-3,3-dimethyl-1-oxobutan-2-yl)amino)-2-oxoethyl)cyclohexyl)oxy)-2-methylphenyl)picolinic acid]	B (50% ≤ Ymin < 70%)
Cc1ncsc1-c1ccc([C@H](C)NC(=O)[C@@H]2C[C@@H](O)CN2C(=O)[C@@H](NC(=O)C(F)(F)C[C@H]2CC[C@H](Oc3cccc(-c4ccc(N5CCc6cccc(C(=O)Nc7nc8ccccc8s7)c6C5)nc4C(=O)O)c3C)CC2)C(C)(C)C)cc1 [Compound 117a, 6-(8-(benzo[d]thiazol-2-ylcarbamoyl)-3,4-dihydroisoquinolin-2 (1H)-yl)-3-(3-(((1S,4r)-4-(2,2-difluoro-3-(((S)-1-((2S,4R)-4-hydroxy-2-(((S)-1-(4-(4-methylthiazol-5-yl)phenyl)ethyl)carbamoyl)pyrrolidin-1-yl)-3,3-dimethyl-1-oxobutan-2-yl)amino)-3-oxopropyl)cyclohexyl)oxy)-2-methylphenyl)picolinic acid]	B (50% ≤ Ymin < 70%)
CC(=O)O[C@@H]1C[C@@H](C(=O)N[C@@H](C)c2ccc(-c3scnc3C)cc2)N(C(=O)[C@@H](NC(=O)CCCc2ccc(Oc3cccc(-c4ccc(N5CCc6cccc(C(=O)Nc7nc8ccccc8s7)c6C5)nc4C(=O)O)c3C)cc2)C(C)(C)C)C1 [Compound 118a, 3-[3-[4-[4-[[(1S)-1-[(2S,4R)-4-acetoxy-2-[[(1S)-1-[4-(4-methylthiazol-5-yl)phenyl]ethyl]carbamoyl]pyrrolidine-1-carbonyl]-2,2-dimethyl-propyl]amino]-4-oxo-butyl]phenoxy]-2-methyl-phenyl]-6-[8-(1,3-benzothiazol-2-ylcarbamoyl)-3,4-dihydro-1H-isoquinolin-2-yl]pyridine-2-carboxylic acid]	B (50% ≤ Ymin < 70%)
CC(=O)O[C@@H]1C[C@@H](C(=O)N[C@@H](C)c2ccc(-c3scnc3C)cc2)N(C(=O)[C@@H](NC(=O)C[C@H]2CC[C@H](Oc3cccc(-c4ccc(N5CCc6cccc(C(=O)Nc7nc8ccccc8s7)c6C5)nc4C(=O)O)c3C)CC2)C(C)(C)C)C1 [Compound 119a, 3-(3-(((1S,4r)-4-(2-(((S)-1-((2S,4R)-4-acetoxy-2-(((S)-1-(4-(4-methylthiazol-5-yl)phenyl)ethyl)carbamoyl)pyrrolidin-1-yl)-3,3-dimethyl-1-oxobutan-2-yl)amino)-2-oxoethyl)cyclohexyl)oxy)-2-methylphenyl)-6-(8-(benzo[d]thiazol-2-ylcarbamoyl)-3,4-dihydroisoquinolin-2 (1H)-yl)picolinic acid]	B (50% ≤ Ymin < 70%)
Cc1ncsc1-c1ccc([C@@H](NC(=O)[C@@H]2C[C@@H](O)CN2C(=O)[C@@H](NC(=O)CCCc2ccc(Oc3cccc(-c4ccc(N5CCc6cccc(C(=O)Nc7nc8ccccc8s7)c6C5)nc4C(=O)O)c3C)cc2)C(C)(C)C)C(F)(F)F)cc1 [Compound 120a, 6-[8-(1,3-benzothiazol-2-ylcarbamoyl)-3,4-dihydro-1H-isoquinolin-2-yl]-3-[3-[4-[4-[[(1S)-1-[(2S,4R)-4-hydroxy-2-[[(1R)-2,2,2-trifluoro-1-[4-(4-methylthiazol-5-yl)phenyl]ethyl]carbamoyl]pyrrolidine-1-carbonyl]-2,2-dimethyl-propyl]amino]-4-oxo-butyl]phenoxy]-2-methyl-phenyl]pyridine-2-carboxylic acid]	A (Ymin < 50%)
Cc1ncsc1-c1ccc([C@H](C)NC(=O)[C@@H]2C[C@@H](O)CN2C(=O)[C@@H](NC(=O)CCCc2ccc(Oc3cccc(-c4ccc(N5CCc6cccc(C(=O)Nc7nc8ccccc8s7)c6C5)nc4C(=O)O)c3C)cc2)C(C)(C)C)nc1 [Compound 121a, 6-[8-(1,3-benzothiazol-2-ylcarbamoyl)-3,4-dihydro-1H-isoquinolin-2-yl]-3-[3-[4-[4-[[(1S)-1-[(2S,4R)-4-hydroxy-2-[[(1S)-1-[5-(4-methylthiazol-5-yl)-2-pyridyl]ethyl]carbamoyl]pyrrolidine-1-carbonyl]-2,2-dimethyl-propyl]amino]-4-oxo-butyl]phenoxy]-2-methyl-phenyl]pyridine-2-carboxylic acid]	A (Ymin < 50%)
Cc1ncsc1-c1ccc([C@H](C)NC(=O)[C@@H]2C[C@@H](O)CN2C(=O)[C@@H](NC(=O)CN2CCC(Oc3cccc(-c4ccc(N5CCc6cccc(C(=O)Nc7nc8ccccc8s7)c6C5)nc4C(=O)O)c3C)CC2)C(C)(C)C)cc1 [Compound 122a, 6-[8-(1,3-benzothiazol-2-ylcarbamoyl)-3,4-dihydro-1H-isoquinolin-2-yl]-3-[3-[[1-[2-[[(1S)-1-[(2S,4R)-4-hydroxy-2-[[(1S)-1-[4-(4-methylthiazol-5-yl)phenyl]ethyl]carbamoyl]pyrrolidine-1-carbonyl]-2,2-dimethyl-propyl]amino]-2-oxo-ethyl]-4-piperidyl]oxy]-2-methyl-phenyl]pyridine-2-carboxylic acid]	B (50% ≤ Ymin < 70%)
Cc1ncsc1-c1ccc([C@H](C)NC(=O)[C@@H]2C[C@@H](O)CN2C(=O)[C@@H](NC(=O)CN2CCC(CCOc3cccc(-c4ccc(N5CCc6cccc(C(=O)Nc7nc8ccccc8s7)c6C5)nc4C(=O)O)c3C)CC2)C(C)(C)C)cc1 [Compound 123a, 6-(8-(benzo[d]thiazol-2-ylcarbamoyl)-3,4-dihydroisoquinolin-2 (1H)-yl)-3-(3-(2-(1-(2-(((S)-1-((2S,4R)-4-hydroxy-2-(((S)-1-(4-(4-methylthiazol-5-yl)phenyl)ethyl)carbamoyl)pyrrolidin-1-yl)-3,3-dimethyl-1-oxobutan-2-yl)amino)-2-oxoethyl)piperidin-4-yl)ethoxy)-2-methylphenyl)picolinic acid]	A (Ymin < 50%)
